{"source": "patent US20210268070A1", "about": "“Use of Immunomodulators to Control Infection and Stimulate Healing in Normal and Diabetic Wounds” (priority 2018, published 2021)", "molecules": {"B1": {"name": "Chemokine (C-C motif) ligand 3 (protein, listed as Homo sapiens)", "chain": "MQVSTAALAVLLCTMALCNQFSASLAADTPTACCFSYTSRQIPQNFIADYFETSSQCSKPGVIFLTKRSRQVCADPSEEWVQKYVSDLELSA", "notes": "class 1 immunomodulator"}}, "assay_type_in_all_cases": "in vivo", "key": {"S. aureus": {"tested_on": "S. aureus", "experiment": "S. aureus surgical site infection, implant model", "details": "S. aureus 10^6 CFU, titers after 1 day, compared to PBS, FIGS. 5A and 5B", "text": "FIGS. 5A and 5B illustrate that PAMPs are effective in controlling S. aureus surgical site infection as prophylactic antibiotic standard therapy. S. aureus (10^6 CFU). S. aureus titers after 1 day. Significance determined as compared to PBS *<0.05, **p<0.01, ***p<0.001, ****p<0.0001.\nWe next examined the impact of CCL3 topical treatment on leukocyte migration by H&E staining, and on leukocyte activation by myeloperoxidase (MPO) measurements by ELISA. (MPO is primarily used as a marker for neutrophil activation but it can also be expressed to lesser extent in macrophages).\n(§1) Implant surgery and wound surgery and surgical site infection are performed according to the following method. On the day of surgery, all mice are anesthetized by an intraperitoneal injection of a ketamine/xylazine mixture (90 mg/kg ketamine+5 mg/kg xylazine for mice). The back of the animals is shaved using an electric shave and scrubbed with alcohol swabs 3 times, a topical antiseptic solution (Hibiclens; chlorhexidine gluconate) is applied to the skin. The surgical procedures are performed with sterile instruments, sterile surgical gloves, and aseptic techniques as follows. For wound surgical procedure, a sterile biopsy punch (5-7 mm diameter) is used to punch through the full thickness of the back skin below the shoulder blades. Four 5-7 mm skin wounds are made on the back of each mouse. […]"}, "USA300 MRSA": {"tested_on": "USA300 MRSA", "experiment": "Implant model of infection with USA300 MRSA", "details": "C57B mice, 10^6 CFU USA300, implant model, topical LPS or fMLP vs vancomycin 40 mg/kg i.p., 24 h, FIG. 2C", "description": "(§2) The implant model of infection in C57B mice was used for 10^6 PA103 (FIG. 2A) or 10^6 USA300 MRSA (FIG. 2C). The wound model of infection was used for 10^6 PA103 in C57BL mice (FIG. 2B) or diabetic db/db mice (FIG. 2D). Infection was carried out at the time of surgery by adding bacteria directly to the surgical sites. Immunomodulators, namely, LPS (10 ng or 100 ng), fMLP (10 ng or 100 ng), CCL3 (1 μg) were added topically at the surgical sites at the time of surgery & infection. GM-CSF (10 μg/kg), tobramycin (Tob at 3.5 mg/kg), and vancomycin (40 mg/kg) were added systemically by i.p. injection 1 h before surgical implantation and infection. Infection levels were determined 24 h following infection (N>4 animals/group; NS=not significant, * p<0.01, ** p<0.001, ***p<0.0001 One-way ANOVA).\n(§3) (15A) C57BL/6 mice received 40 mg/kg prophylaxis (Sys) vancomycin (Vanc) or 3.5 mg/kg tobramycin (Tobra) by i.p. injection. (15A) 1 h after antibiotic administration, 106 CFU of USA300 was added to implant after insertion into facia (Implant Model). (15B) 1 h after antibiotic administration, 10^6CFU of USA300 or 106CFU PA103 (Pa) were added full-thickness wounds in of C57BL/6 (Wound Model). Infection levels at implant surgical site (Tissue & Implant) or a distant site (Spleen), or wound tissues were assessed 24 h following infection. (N>4 animals/group, * p<0.01, ***p<0.0001, One-way ANOVA).\n(§4) We assessed these immunomodulators for their ability to control wound and/or implant SS's in normal (C57BL/6) or diabetic (db/db) mice. We acknowledge that diabetic individuals are not as immunocompromised as other immunocompromised patient groups. […] All immunomodulators were added locally at the surgical sites at the time of infection, except GM-CSF (10 μg/kg) which was administered systemically by i.p. injection 1 h prior to surgery per its FDA-approved route of delivery. […] CCL3 and GM-CSF are also tested using the implant model of infection. Here, we tested CCL3 and GM-CSF in the wound model of infection in C57B mice.\nas §1, with “blades.” for “blades. Four 5-7 mm skin wounds are made on the back of each mouse.”"}, "P. aeruginosa PA103": {"tested_on": "P. aeruginosa PA103", "experiment": "Wound model of infection with PA103 in normal (C57BL) mice", "details": "for infection control against P. aeruginosa PA103 in normal wounds: C57B mice, immunomodulator added locally at time of infection, compared to PBS, FIGS. 3A, 4A, 4B, 6A", "description": "as §2, §3, §4\nImplant surgery and wound surgery and surgical site infection are performed according to the following method. On the day of surgery, all mice are anesthetized by an intraperitoneal injection of a ketamine/xylazine mixture (90 mg/kg ketamine+5 mg/kg xylazine for mice). The back of the animals is shaved using an electric shave and scrubbed with alcohol swabs 3 times, a topical antiseptic solution (Hibiclens; chlorhexidine gluconate) is applied to the skin. The surgical procedures are performed with sterile instruments, sterile surgical gloves, and aseptic techniques as follows. For wound surgical procedure, a sterile biopsy punch (5-7 mm diameter) is used to punch through the full thickness of the back skin below the shoulder blades. Four 5-7 mm skin wounds are made on the back of each mouse. Wounds placed in this area cannot be reached by the animals and therefore are protected from self-licking. For implant surgery, a 4-mm long lateral skin incision is made on the upper back, and the skin is retracted. The space above the muscle is opened using blunt dissection with fine forceps, to create a rostral fascia indentation. Then, immunomodulators at indicated concentrations (in a 20 μL volume) or PBS control are injected into the fascia indentation."}}, "note": "“Also recorded” adds a separate entry of the source."}
{"molecule": "CSCC[C@H](NC=O)C(=O)N[C@@H](CC(C)C)C(=O)N[C@@H](Cc1ccccc1)C(=O)O", "note": "[fMLP, N-Formylmethionyl-leucyl-phenylalanine]", "values": [{"measurement": "infection control in the implant model against S. aureus", "setting": "S. aureus", "result": "improved"}, {"measurement": "controlling USA300 MRSA infection, compared with prophylaxis vancomycin", "setting": "USA300 MRSA", "result": "as effective (if not more)"}, {"measurement": "infection control against P. aeruginosa PA103 in normal wounds", "setting": "P. aeruginosa PA103", "result": "enhance; also recorded: significantly improved"}]}
{"molecule": "lipopolysaccharide [LPS]", "values": [{"measurement": "infection control in the implant model against S. aureus", "setting": "S. aureus", "result": "improved"}, {"measurement": "controlling USA300 MRSA infection, compared with prophylaxis vancomycin", "setting": "USA300 MRSA", "result": "as effective (if not more)"}, {"measurement": "infection control against P. aeruginosa PA103 in normal wounds", "setting": "P. aeruginosa PA103", "result": "enhance; also recorded: significantly improved"}]}
{"molecule": "B1", "values": [{"measurement": "controlling PA103 infection, compared with prophylaxis tobramycin", "setting": "P. aeruginosa PA103; C57B mice wound model, topical CCL3 1 μg, both at 10^3 and 10^6 CFU, tobramycin 3.5 mg/kg i.p., FIG. 2B", "result": "as effective"}, {"measurement": "infection control against P. aeruginosa PA103 in normal wounds", "setting": "P. aeruginosa PA103", "result": "enhances; also recorded: effective"}]}
